In US6448006B1, “Methods and compositions for reducing bacterial tolerance to antibacterials disinfectants and organic solvents” (priority 1997, dated 2002):
Where two headings read alike, the source gives them in different places.

Legend:
[1] = values in parentheses in column heads; cited from earlier work
[2] = system: E. coli strains bearing mar, soxS or robA plasmids; assay type: cell-based
Source text: Organic solvent tolerance mediated by the marA, soxS, robA and acrAB loci of E. coli is described in White et al. (J. Bacteriol. 179:6122-6126, 1997).

marA mRNA = test: Northern blot analysis of marA mRNA with inducer salicylate; assay type: cell-based, E. coli; conditions: Mar mutant AG102, mutants AP5 and NP3.5 GP
Source text: Over expression was also seen in mutant APS3 (data not shown). […] We concluded that AP5, NP3.5GP, and APS3, but not AP1, were probably Mar mutants.

[3] = AG100-B (acrR mutant), no plasmid
[4] = AG100K (marCORAB::kan), no plasmid
[5] = AG102 (marR mutation), no plasmid
[6] = AG102-A (marRl, ΔacrAB), no plasmid

C1CCCCC1 [cyclohexane]
log Pow [1]: cyclohexane (3.4)
Growth in presence of organic solvent ([2]; AG100 (wild-type), no plasmid): −
Growth in presence of organic solvent ([2]; AG100, plasmid pMAK-TU1): −
Growth in presence of organic solvent ([2]; AG100, plasmid pMAK-TU1 & TU2): + +
Growth in presence of organic solvent ([2]; AG100, plasmid pMAK-TU2): + ((+) visible growth(≦100 colonies))
Growth in presence of organic solvent ([2]; AG100, plasmid pSMarAB): + ((+) visible growth(≦100 colonies))
Growth in presence of organic solvent ([2]; AG100, plasmid pSRob): + +
Growth in presence of organic solvent ([2]; AG100, plasmid pSXS): + +
Growth in presence of organic solvent ([2]; AG100-A (ΔacrAB), no plasmid): −
Growth in presence of organic solvent [2, 3]: + ((+) visible growth(≦100 colonies))
Growth in presence of organic solvent [2, 4]: −
Growth in presence of organic solvent ([2]; AG100K, plasmid pMAK-TU1): −
Growth in presence of organic solvent ([2]; AG100K, plasmid pMAK-TU2): + ((+) visible growth(≦100 colonies))
Growth in presence of organic solvent ([2]; AG100K, plasmid pMAK-TUI & TU2): + +
Growth in presence of organic solvent ([2]; AG100K, plasmid pSMarAB): + ((+) visible growth(≦100 colonies))
Growth in presence of organic solvent ([2]; AG100K, plasmid pSRob): + +
Growth in presence of organic solvent ([2]; AG100K, plasmid pSXS): + +
Growth in presence of organic solvent [2, 5]: + +
Growth in presence of organic solvent [2, 6]: −
Growth in presence of organic solvent ([2]; AG102-A, plasmid pSMarAB): −
Growth in presence of organic solvent ([2]; AG102-A, plasmid pSRob): −
Growth in presence of organic solvent ([2]; AG102-A, plasmid pSXS): −
Growth in presence of organic solvent ([2]; DJ901 (ΔsoxRS), no plasmid): −
Growth in presence of organic solvent ([2]; DJ901, plasmid pMAK-TU1): −
Growth in presence of organic solvent ([2]; DJ901, plasmid pMAK-TU1 & TU2): + +
Growth in presence of organic solvent ([2]; DJ901, plasmid pMAK-TU2): + ((+) visible growth(≦100 colonies))
Growth in presence of organic solvent ([2]; DJ901, plasmid pSMarAB): + ((+) visible growth(≦100 colonies))
Growth in presence of organic solvent ([2]; DJ901, plasmid pSRob): + +
Growth in presence of organic solvent ([2]; DJ901, plasmid pSXS): + +
Growth in presence of organic solvent ([2]; GC4468 (wild-type), no plasmid): −
Growth in presence of organic solvent ([2]; GC4468, plasmid pMAK-TU1): −
Growth in presence of organic solvent ([2]; GC4468, plasmid pMAK-TU1 & TU2): + +
Growth in presence of organic solvent ([2]; GC4468, plasmid pMAK-TU2): + ((+) visible growth(≦100 colonies))
Growth in presence of organic solvent ([2]; GC4468, plasmid pSMarAB): + ((+) visible growth(≦100 colonies))
Growth in presence of organic solvent ([2]; GC4468, plasmid pSRob): + +
Growth in presence of organic solvent ([2]; GC4468, plasmid pSXS): + +
Growth in presence of organic solvent ([2]; JHC1069 (cfxB1), no plasmid): + +
Growth in presence of organic solvent ([2]; JTG1078 (soxR105), no plasmid): + +
Growth in presence of organic solvent ([2]; MCH164 (Δmar), no plasmid): −
Growth in presence of organic solvent ([2]; MCH164, plasmid pMAK-TU1): −
Growth in presence of organic solvent ([2]; MCH164, plasmid pMAK-TU1 & TU2): + +
Growth in presence of organic solvent ([2]; MCH164, plasmid pMAK-TU2): −
Growth in presence of organic solvent ([2]; MCH164, plasmid pSMarAB): −
Growth in presence of organic solvent ([2]; MCH164, plasmid pSRob): −
Growth in presence of organic solvent ([2]; MCH164, plasmid pSXS): −
Growth in presence of organic solvent ([2]; RA4468 (robA::kan), no plasmid): −
Growth in presence of organic solvent ([2]; RA4468, plasmid pMAK-TU1): −
Growth in presence of organic solvent ([2]; RA4468, plasmid pMAK-TU1 & TU2): + +
Growth in presence of organic solvent ([2]; RA4468, plasmid pMAK-TU2): + ((+) visible growth(≦100 colonies))
Growth in presence of organic solvent ([2]; RA4468, plasmid pSMarAB): + ((+) visible growth(≦100 colonies))
Growth in presence of organic solvent ([2]; RA4468, plasmid pSRob): + +
Growth in presence of organic solvent ([2]; RA4468, plasmid pSXS): + +

CCCCCC [n-hexane]
Growth in presence of organic solvent ([2]; AG100 (wild-type), no plasmid): + +
Growth in presence of organic solvent ([2]; AG100, plasmid pMAK-TU1): + +
Growth in presence of organic solvent ([2]; AG100, plasmid pMAK-TU1 & TU2): + +
Growth in presence of organic solvent ([2]; AG100, plasmid pMAK-TU2): + +
Growth in presence of organic solvent ([2]; AG100, plasmid pSMarAB): + +
Growth in presence of organic solvent ([2]; AG100, plasmid pSRob): + +
Growth in presence of organic solvent ([2]; AG100, plasmid pSXS): + +
Growth in presence of organic solvent ([2]; AG100-A (ΔacrAB), no plasmid): −
Growth in presence of organic solvent [2, 3]: + +
Growth in presence of organic solvent [2, 4]: + ((+) visible growth(≦100 colonies))
Growth in presence of organic solvent ([2]; AG100K, plasmid pMAK-TU1): + ((+) visible growth(≦100 colonies))
Growth in presence of organic solvent ([2]; AG100K, plasmid pMAK-TU2): + +
Growth in presence of organic solvent ([2]; AG100K, plasmid pMAK-TUI & TU2): + +
Growth in presence of organic solvent ([2]; AG100K, plasmid pSMarAB): + +
Growth in presence of organic solvent ([2]; AG100K, plasmid pSRob): + +
Growth in presence of organic solvent ([2]; AG100K, plasmid pSXS): + +
Growth in presence of organic solvent [2, 5]: + +
Growth in presence of organic solvent [2, 6]: −
Growth in presence of organic solvent ([2]; AG102-A, plasmid pSMarAB): −
Growth in presence of organic solvent ([2]; AG102-A, plasmid pSRob): −
Growth in presence of organic solvent ([2]; AG102-A, plasmid pSXS): −
Growth in presence of organic solvent ([2]; DJ901 (ΔsoxRS), no plasmid): + +
Growth in presence of organic solvent ([2]; DJ901, plasmid pMAK-TU1): + +
Growth in presence of organic solvent ([2]; DJ901, plasmid pMAK-TU1 & TU2): + +
Growth in presence of organic solvent ([2]; DJ901, plasmid pMAK-TU2): + +
Growth in presence of organic solvent ([2]; DJ901, plasmid pSMarAB): + +
Growth in presence of organic solvent ([2]; DJ901, plasmid pSRob): + +
Growth in presence of organic solvent ([2]; DJ901, plasmid pSXS): + +
Growth in presence of organic solvent ([2]; GC4468 (wild-type), no plasmid): + +
Growth in presence of organic solvent ([2]; GC4468, plasmid pMAK-TU1): + +
Growth in presence of organic solvent ([2]; GC4468, plasmid pMAK-TU1 & TU2): + +
Growth in presence of organic solvent ([2]; GC4468, plasmid pMAK-TU2): + +
Growth in presence of organic solvent ([2]; GC4468, plasmid pSMarAB): + +
Growth in presence of organic solvent ([2]; GC4468, plasmid pSRob): + +
Growth in presence of organic solvent ([2]; GC4468, plasmid pSXS): + +
Growth in presence of organic solvent ([2]; JHC1069 (cfxB1), no plasmid): + +
Growth in presence of organic solvent ([2]; JTG1078 (soxR105), no plasmid): + +
Growth in presence of organic solvent ([2]; MCH164 (Δmar), no plasmid): + ((+) visible growth(≦100 colonies))
Growth in presence of organic solvent ([2]; MCH164, plasmid pMAK-TU1): + ((+) visible growth(≦100 colonies))
Growth in presence of organic solvent ([2]; MCH164, plasmid pMAK-TU1 & TU2): + +
Growth in presence of organic solvent ([2]; MCH164, plasmid pMAK-TU2): + +
Growth in presence of organic solvent ([2]; MCH164, plasmid pSMarAB): + +
Growth in presence of organic solvent ([2]; MCH164, plasmid pSRob): + +
Growth in presence of organic solvent ([2]; MCH164, plasmid pSXS): + +
Growth in presence of organic solvent ([2]; RA4468 (robA::kan), no plasmid): + ((+) visible growth(≦100 colonies))
Growth in presence of organic solvent ([2]; RA4468, plasmid pMAK-TU1): + ((+) visible growth(≦100 colonies))
Growth in presence of organic solvent ([2]; RA4468, plasmid pMAK-TU1 & TU2): + +
Growth in presence of organic solvent ([2]; RA4468, plasmid pMAK-TU2): + +
Growth in presence of organic solvent ([2]; RA4468, plasmid pSMarAB): + +
Growth in presence of organic solvent ([2]; RA4468, plasmid pSRob): + +
Growth in presence of organic solvent ([2]; RA4468, plasmid pSXS): + +

CCCCC [n-pentane]
Growth in presence of organic solvent ([2]; AG102, Mar mutant of AG100, data not shown): grew

O=C(O)c1ccccc1O [salicylate]
Effect of inducer on over expression of marA mRNA (marA mRNA): enhanced
